Source: patent publication US20100003217A1, “Compounds and Pharmaceutical Compositions for the Treatment of Viral Infections” (priority 2008, published 2010)
“And” between values parts separate entries of the source, which are not always exact repeats. Equal entries are not always repeated. Values belong to the compound of their own block, whether it stands above or below them.

What was measured:
rat primary hepatocytes = experiment: Metabolic disposition of [^14C]-Compound 1 and [^14C]-2′-C-methyl guanosine in rat primary hepatocytes (incubation medium, cellular extracts, nucleotide levels); assay type: in vitro ADME, Sprague Dawley rat
Experimental: (§1) Primary hepatocytes: Freshly isolated cells from animal and human liver were obtained in suspension on ice. Cells were pelleted by centrifugation at 70-75×g (rat) or 95-90×g (monkey and human) and resuspended at 0.8 million cells per mL of platting medium (William's E supplemented with 5% FBS, 0.5% penicillin-streptomycin, 1% L-glutamine, 4 μg/mL insulin and 1 μM dexamethasone). Multi-well collagen I-coated plates (rat tail collagen type I; 12- or 6-well) were then seeded by addition of 1 mL (12-well; 0.8 million cells/well) or 2 mL (6-well; 1.6 million cells/well) of cell suspension. The plates were gently shaken to evenly distribute the cells and placed in an incubator at 37° C. for approximately 4 to 6 hours to allow cells to attach. Once cells were attached, the platting medium was removed and replaced with hepatocyte culture medium (William's E supplemented with penicillin-streptomycin, 1% L-glutamine, 1% insulin-transferrin-selenium and 0.1 μM dexamethasone). Cells were left overnight in an incubator at 37° C. to acclimatize to culture and the medium.
(§2) Hepatocyte incubations with radiolabeled Compound 1 and 2′-C-methyl guanosine, both labeled in the C-8 position of the guanine moiety, were conducted at a final volume of 2.0 mL hepatocyte culture medium/well ([…]). Culture medium from overnight incubation of cells was removed and replaced with fresh medium, pre-warmed to 37° C., containing 1 or 10 μM [^14C]-Compound 1 ([…]) or [^14C]-2′-C-methyl guanosine (127 DPM/μmol) from a stock solution in DMSO (final DMSO concentration was 0.1%) or 50% ethanol (final ethanol concentration was 0.2%). After 1, 4, 8 and 24 hours, 0.5-1.0 mL of incubation medium was removed and stored at −20° C. until analysis (described below). The remaining medium was discarded and cell monolayers were carefully washed two times with ice-cold PBS. Following the last wash, all PBS was carefully removed and 1.0 mL of extraction solution (ice-cold 70% methanol) added. Cells were scrapped off and suspended in the extraction solution, transferred to 2 mL polypropylene microfuge tubes and intracellular contents extracted overnight at −20° C.
(§3) Preliminary identification of putative metabolites was conducted by comparing the retention time of observed metabolites in incubation medium and cellular extracts with retention times obtained with chemically synthesized standards using the chromatography conditions described below. Further identification of 2′-C-methyl guanosine nucleotides (mono-, di- and triphosphate) was carried out by incubating cellular extract samples with alkaline phosphatase (10 units for 60 min at 37° C.) and comparing the HPLC retention times of the resulting nucleosides with that of authentic 2′-C-methyl guanosine.
(§4) Cellular extracts were prepared by centrifugation at 16,000 RCF using an Eppendorf microcentrifuge (Eppendorf, Model 5415D) for 10 min to remove cellular debris. An aliquot of 5-10 μL of the supernatant was added to 5 mL of EcoLite™ (MP, Irvine, Calif.) liquid scintillation cocktail and radioactivity measured by liquid scintillation counting (LSC) using a Beckman Coulter LS6500 multipurpose liquid scintillation counter (Beckman Instruments, Fullerton, Calif.). The remaining sample was then dried using a Labconco refrigerated centrivap concentrator (Labconco, Kansas City, Mo.). Dry extracts were reconstituted in 120 μL of HPLC-grade water and centrifuged at 16,000 RCF using an Eppendorf microcentrifuge for 10 min. Prior to HPLC analysis (described below), radioactivity of the concentrated extracts was measured by LSC using 5 μL aliquots. Extraction recovery was then determined by comparing total radioactivity in extracts before and after drying. The remaining extract was then analyzed by HPLC with online radioactivity detection using a Flow Scintillation Analyzer Radiomatic™ 515TR. Radioactivity in the separated components was quantified by integrating the peaks using Flo-One™ Software (Perkin Elmer Life Sciences). […]

[1] = test system: monkey primary hepatocytes; experiment: Metabolic disposition of [^14C]-Compound 1 and [^14C]-2′-C-methyl guanosine in monkey primary hepatocytes (incubation medium, cellular extracts, nucleotide levels); assay type: in vitro ADME, Cynomolgus monkey; conditions: for decrease in Compound 1 medium levels: monkey hepatocytes; for decrease in Compound 1 medium levels / % Residual [^14C]-Compound 1 in incubation medium: 10 μM
Experimental: as §1, §2, §3, §4

[2] = rat hepatocytes (Rs448, Rs458), 10 μM [^14C]-Compound 1, 24 h
[3] = rat hepatocytes (Rs458), 1 μM [^14C]-Compound 1, 1 h
[4] = rat hepatocytes (Rs458), 1 μM [^14C]-Compound 1, 8 h
[5] = rat hepatocytes (Rs458), 1 μM [^14C]-Compound 1, 24 h

Compound: CC(C)(CO)C(=O)SCCOP(=O)(NCc1ccccc1)OC[C@H]1O[C@@H](n2cnc3c(=O)[nH]c(N)nc32)[C@](C)(O)[C@@H]1O (mixture of isomers) [Compound 1, 3-hydroxy-2,2-dimethyl-thiopropionic acid S-(2-{[(2R,3R,4R,5R)-5-(2-amino-6-oxo-1,6-dihydro-purin-9-yl)-3,4-dihydroxy-4-methyl-tetrahydro-furan-2-ylmethoxy]-benzylamino-phosphoryloxy}-ethyl) ester]
- metabolites observed in cellular extracts (% of total radioactivity) (rat primary hepatocytes; rat hepatocytes (Rs448, Rs458), 10 μM [^14C]-Compound 1, 1 h, listed as Compd 1): 15.0% and 19.7%
- metabolites observed in cellular extracts (% of total radioactivity) (rat primary hepatocytes; rat hepatocytes (Rs448, Rs458), 10 μM [^14C]-Compound 1, 4 h, listed as Compd 1): 3.86% and 4.02%
- metabolites observed in cellular extracts (% of total radioactivity) (rat primary hepatocytes; rat hepatocytes (Rs448, Rs458), 10 μM [^14C]-Compound 1, 8 h, listed as Compd 1): 1.20% and 0.95%
- metabolites observed in cellular extracts (% of total radioactivity) (rat primary hepatocytes; [2]): undetected
- metabolites observed in cellular extracts (% of total radioactivity) (rat primary hepatocytes; rat hepatocytes (Rs448, Rs458), 10 μM [^14C]-Compound 1, 24 h, listed as Compd 1): BLD
- metabolites observed in cellular extracts (% of total radioactivity) (rat primary hepatocytes; [3]): 12.3%
- metabolites observed in cellular extracts (% of total radioactivity) (rat primary hepatocytes; [4]): BLD
- metabolites observed in cellular extracts (% of total radioactivity) (rat primary hepatocytes; [5]): BLD
- reduction in Compound 1 medium levels (rat primary hepatocytes; rat hepatocytes, 1 μM, 8 hours): approximately 79%
- decrease in Compound 1 medium levels (rat primary hepatocytes; rat hepatocytes, 10 μM, 4 hours): ~50%
- % Residual [^14C]-Compound 1 in incubation medium (rat primary hepatocytes; rat primary hepatocytes (n=1), 1 μM, 0 h): 99%
- % Residual [^14C]-Compound 1 in incubation medium (rat primary hepatocytes; rat primary hepatocytes (n=1), 1 μM, 1 h): 89%
- % Residual [^14C]-Compound 1 in incubation medium (rat primary hepatocytes; rat primary hepatocytes (n=1), 1 μM, 8 h): 21%
- % Residual [^14C]-Compound 1 in incubation medium (rat primary hepatocytes; rat primary hepatocytes (n=1), 1 μM, 24 h): 0%
- % Residual [^14C]-Compound 1 in incubation medium (rat primary hepatocytes; rat primary hepatocytes (n=2), 10 μM, 0 h): 95% and 97%
- % Residual [^14C]-Compound 1 in incubation medium (rat primary hepatocytes; rat primary hepatocytes (n=2), 10 μM, 1 h): 91% and 93%
- % Residual [^14C]-Compound 1 in incubation medium (rat primary hepatocytes; rat primary hepatocytes (n=2), 10 μM, 4 h): 48% and 55%
- % Residual [^14C]-Compound 1 in incubation medium (rat primary hepatocytes; rat primary hepatocytes (n=2), 10 μM, 8 h): 18% and 32%
- % Residual [^14C]-Compound 1 in incubation medium (rat primary hepatocytes; rat primary hepatocytes (n=2), 10 μM, 24 h): 0%
- metabolites observed in cellular extracts (% of total radioactivity) ([1]; monkey hepatocytes (Cy230, Cy234), 10 μM [^14C]-Compound 1, 8 h): BLD
- metabolites observed in cellular extracts (% of total radioactivity) ([1]; monkey hepatocytes (Cy230, Cy234), 10 μM [^14C]-Compound 1, 24 h): undetected and BLD
- metabolites observed in cellular extracts (% of total radioactivity) ([1]; monkey hepatocytes (Cy234), 10 μM [^14C]-Compound 1, 4 h): 3.03%
- decrease in Compound 1 medium levels ([1]; 8 hours): about 40%
- decrease in Compound 1 medium levels ([1]; 24 hours): 77%
- % Residual [^14C]-Compound 1 in incubation medium ([1]; monkey primary hepatocytes (n=2), 0 h): 97% and 91%
- % Residual [^14C]-Compound 1 in incubation medium ([1]; monkey primary hepatocytes (n=2), 1 h): 95% and 67%
- % Residual [^14C]-Compound 1 in incubation medium ([1]; monkey primary hepatocytes (n=2), 8 h): 63% and 61%
- % Residual [^14C]-Compound 1 in incubation medium ([1]; monkey primary hepatocytes (n=2), 24 h): 16% and 31%
- % Residual [^14C]-Compound 1 in incubation medium ([1]; monkey primary hepatocytes, 4 h): 66%

- metabolites observed in cellular extracts (% of total radioactivity) (rat primary hepatocytes; rat hepatocytes (Rs448, Rs458), 10 μM [^14C]-Compound 1, 8 h): BLD
- metabolites observed in cellular extracts (% of total radioactivity) (rat primary hepatocytes; [2]): BLD
- metabolites observed in medium (% of total radioactivity) (rat primary hepatocytes; rat hepatocytes (Rs458), 1 μM [^14C]-Compound 1, 0 h): BLD
- metabolites observed in medium (% of total radioactivity) (rat primary hepatocytes; [3]): BLD
- metabolites observed in medium (% of total radioactivity) (rat primary hepatocytes; [4]): BLD
- metabolites observed in medium (% of total radioactivity) (rat primary hepatocytes; [5]): 1.7% and 1.71%
- metabolites observed in medium (% of total radioactivity) (rat primary hepatocytes; rat hepatocytes (lots Rs448, Rs458), 10 μM [^14C]-Compound 1, 0 h): BLD
- metabolites observed in medium (% of total radioactivity) (rat primary hepatocytes; rat hepatocytes (lots Rs448, Rs458), 10 μM [^14C]-Compound 1, 1 h): BLD
- metabolites observed in medium (% of total radioactivity) (rat primary hepatocytes; rat hepatocytes (lots Rs448, Rs458), 10 μM [^14C]-Compound 1, 4 h): 0.9%
- metabolites observed in medium (% of total radioactivity) (rat primary hepatocytes; rat hepatocytes (lots Rs448, Rs458), 10 μM [^14C]-Compound 1, 8 h): 1.4% and 2.1%
- metabolites observed in medium (% of total radioactivity) (rat primary hepatocytes; rat hepatocytes (lots Rs448, Rs458), 10 μM [^14C]-Compound 1, 24 h): 1.4% and 1.7%
- metabolites observed in medium (% of total radioactivity) ([1]; monkey hepatocytes (lot Cy234), 10 μM [^14C]-Compound 1, 4 h): BLD
- metabolites observed in medium (% of total radioactivity) ([1]; monkey hepatocytes (lots Cy230, Cy234), 10 μM [^14C]-Compound 1, 0 h): BLD
- metabolites observed in medium (% of total radioactivity) ([1]; monkey hepatocytes (lots Cy230, Cy234), 10 μM [^14C]-Compound 1, 1 h): BLD
- metabolites observed in medium (% of total radioactivity) ([1]; monkey hepatocytes (lots Cy230, Cy234), 10 μM [^14C]-Compound 1, 24 h): 3.1% and 0.9%
Compound: CC(C)(CO)C(=O)SCCOP(N)(=O)OC[C@H]1O[C@@H](n2cnc3c(=O)[nH]c(N)nc32)[C@](C)(O)[C@@H]1O (mixture of isomers) [Compound 3, {9-[(2R)2-C-methyl-β-D-ribo-furanosyl]-guanin}-5′-yl-O-(hydroxy-tert-butyl-S-acyl-2-thioethyl) phosphoramidate]
